This is an account of results in publication PMC8466755, “GPCR Pharmacological Profiling of Aaptamine from the Philippine Sponge Stylissa sp. Extends Its Therapeutic Potential for Noncommunicable Diseases” (Molecules, 2021).

SMILES strings stand for the structures. Entries after “also recorded” stand apart in the source; their conditions may differ.

Assay [1] has as its target T1, purified 20S proteasome from human erythrocytes (Homo sapiens, UniProt P28074).
T1 construct: purified 20S proteasome from human erythrocyte; purchased Enzo Life Sciences; host or cells: human erythrocytes (tissue-purified)
The experiment in a line: 20S proteasome chymotrypsin-like activity assay (Suc-LLVY-AMC). It counts as biochemical. The procedure: (§1) Aaptamine was tested against HCT116 colon cancer cells and cell viability was assessed after 48 h using an MTT (3-(4,5-dimethyl dimethylthiazol-2-yl)-2,5-diphenyltetrazolium bromide) assay. […] The results agreed with the findings of Kobayashi et al. that aaptamine at concentrations of 20–50 µM increased the expression of the cyclin-dependent kinase inhibitor p21, a protein known to act as a negative regulator of cell cycle progression, thus preventing cell proliferation. […] To alternatively explain the activity of aaptamine, we tested the compound for its ability to inhibit the chymotrypsin-like activity of a purified 20S proteasome from human erythrocytes. Proteasome inhibitors are validated anticancer agents. Aaptamine was able to inhibit the enzyme activity by 41% at 50 µM (Figure 2b). […] In our study, aaptamine had similar IC50 values for cancer cell growth inhibition and proteasome inhibition in vitro (~50 µM).
The 20S proteasome assay kit from Enzo Life Sciences (NY, USA) is a fluorogenic, non-radioactive assay designed to measure the chymotrypsin-like protease activity of purified 20S proteasome from human erythrocyte. […] The fluorescence was then measured at an excitation of 360 nm and emission of 460 nm using a SpectraMax M5 plate reader (Molecular Device). The data were recorded every 2 min for 20 min. […]

The next assay addresses OPRK1 (Homo sapiens, UniProt P41145). The experiment in a line: PathHunter β-arrestin assay, positive allosteric modulation (PAM) mode. To be noted: dose-response, control agonist at EC20. It counts as cell-based.
The subject of another assay is α-adrenoreceptor. Further details: method as in PMID 6150989. The note with it: vascular smooth muscle of male albino rabbits, displacement analysis; cited from earlier work.
The target of another assay is DRD2L (Homo sapiens, UniProt P14416). The experiment in a line: PathHunter β-arrestin assay, antagonist mode. It counts as cell-based.
The subject of assay [2] is pdr1 Δ pdr3 Δ S. cerevisiae. Put plainly: Yeast growth inhibition assay, double deletion strain. To be noted: up to 50 µM, 24 h, PDR-attenuated strain.
Protocol: The yeast S. cerevisiae (BY4741) cell culture was prepared by inoculating the microorganism in a 250 mL Erlenmeyer flask containing 50 mL YPD + HEPES medium, followed by incubation at 30 °C for 24–48 h. The assay was performed in a 96-well format. Each well except for the blank contained 100 μL of cell suspension with a final cell density of 5 × 10^4 cells/mL. […] The absorbance was read after a 24 h incubation. […] Nystatin was used as the positive control and DMSO served as the negative control. Each treatment was done in triplicate.
The test system of assay [3] is HCT116 colon cancer cells. The experiment in a line: MTT cell viability assay, HCT116. It counts as cell-based, human. The procedure: as §1
Human colon carcinoma cells (HCT116) were cultured in Dulbecco’s modified Eagle’s medium (DMEM, Invitrogen, MA, USA), supplemented with 10% fetal bovine serum (FBS, Sigma-Aldrich, MO, USA) and 1% antibiotic-antimycotic (Invitrogen, MA, USA) humidified at 37 °C with 5% CO2. […] Detection was performed using a SpectraMax M5 spectrometer (Molecular Devices, CA, USA) at 570 nm and cell viability was calculated and expressed relative to the vehicle control.

For a further assay, the target named is ADRA2C (Homo sapiens, UniProt P18825). Put plainly: PathHunter β-arrestin assay, antagonist mode. It counts as cell-based.
For another assay, the target named is ADRA2A (Homo sapiens, UniProt P08913). The experiment in a line: PathHunter β-arrestin assay, antagonist mode. It counts as cell-based.
Setting [4] is: dose-response analysis, read-out: Dose-Response Maximal Response, % Inhibition.

ADRA2A, sequence (P08913 whole entry): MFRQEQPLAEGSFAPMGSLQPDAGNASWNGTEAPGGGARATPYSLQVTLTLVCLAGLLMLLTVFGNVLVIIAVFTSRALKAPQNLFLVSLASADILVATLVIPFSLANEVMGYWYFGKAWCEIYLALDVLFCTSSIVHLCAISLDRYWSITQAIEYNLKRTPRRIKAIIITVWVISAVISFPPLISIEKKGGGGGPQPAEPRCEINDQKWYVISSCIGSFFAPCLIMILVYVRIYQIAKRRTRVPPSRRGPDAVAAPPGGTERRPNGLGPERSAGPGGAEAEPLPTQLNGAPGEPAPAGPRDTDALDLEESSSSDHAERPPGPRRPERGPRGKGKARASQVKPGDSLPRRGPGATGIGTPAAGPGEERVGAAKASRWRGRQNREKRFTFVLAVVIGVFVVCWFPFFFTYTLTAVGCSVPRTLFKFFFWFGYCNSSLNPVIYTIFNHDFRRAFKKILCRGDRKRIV
DRD2L, sequence (P14416 whole entry): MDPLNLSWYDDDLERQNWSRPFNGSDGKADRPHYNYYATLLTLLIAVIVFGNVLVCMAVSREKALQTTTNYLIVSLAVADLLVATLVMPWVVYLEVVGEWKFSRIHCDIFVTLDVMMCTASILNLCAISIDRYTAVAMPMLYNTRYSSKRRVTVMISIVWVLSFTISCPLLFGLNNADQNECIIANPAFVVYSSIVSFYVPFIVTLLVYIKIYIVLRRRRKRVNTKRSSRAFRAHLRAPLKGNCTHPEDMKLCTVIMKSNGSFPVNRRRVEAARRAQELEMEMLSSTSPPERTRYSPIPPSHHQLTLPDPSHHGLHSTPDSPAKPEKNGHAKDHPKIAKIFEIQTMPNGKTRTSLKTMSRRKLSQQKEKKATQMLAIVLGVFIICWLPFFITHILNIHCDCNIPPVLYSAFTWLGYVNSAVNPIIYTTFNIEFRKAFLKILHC
ADRA2C, sequence (P18825 whole entry): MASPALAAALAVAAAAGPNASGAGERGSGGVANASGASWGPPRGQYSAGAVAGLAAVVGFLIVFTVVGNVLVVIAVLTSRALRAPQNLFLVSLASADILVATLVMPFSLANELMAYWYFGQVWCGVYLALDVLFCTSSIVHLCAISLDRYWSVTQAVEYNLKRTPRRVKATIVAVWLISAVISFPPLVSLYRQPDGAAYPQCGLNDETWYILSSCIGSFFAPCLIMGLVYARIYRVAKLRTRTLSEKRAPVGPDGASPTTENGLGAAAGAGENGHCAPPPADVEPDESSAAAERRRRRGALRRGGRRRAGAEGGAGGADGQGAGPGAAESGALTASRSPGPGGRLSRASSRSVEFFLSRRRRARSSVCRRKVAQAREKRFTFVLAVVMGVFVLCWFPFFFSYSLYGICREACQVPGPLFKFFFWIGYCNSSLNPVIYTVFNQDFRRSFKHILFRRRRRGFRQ
OPRK1, sequence (P41145 whole entry): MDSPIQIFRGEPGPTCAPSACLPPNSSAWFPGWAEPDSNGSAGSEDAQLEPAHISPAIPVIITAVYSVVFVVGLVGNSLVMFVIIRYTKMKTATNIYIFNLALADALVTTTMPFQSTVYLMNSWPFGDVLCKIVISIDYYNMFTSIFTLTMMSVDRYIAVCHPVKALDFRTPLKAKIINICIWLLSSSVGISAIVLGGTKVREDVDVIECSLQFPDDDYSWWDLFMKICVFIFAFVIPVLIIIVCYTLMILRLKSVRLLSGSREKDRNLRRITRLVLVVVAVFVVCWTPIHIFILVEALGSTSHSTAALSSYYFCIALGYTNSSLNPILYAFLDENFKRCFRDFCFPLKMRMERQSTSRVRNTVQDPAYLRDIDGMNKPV
Protocol for ADRA2A: (§2) The assay was performed by DiscoverX Corporation (Fremont, CA) using PathHunter β -arrestin enzyme fragment complementation (EFC) technology, in a similar way to that described elsewhere [35, 36]. The PathHunter cell lines were taken from freezer stocks according to standard procedures. A total of 20 µL of cells were seeded into white 384-well plates and incubated at 37 °C for the appropriate time prior to testing.
(§3) In this assay format, the standard agonist was added at an EC80 concentration. To the plate that contained the cells, 5 µL of the 5X sample was added and incubated for 30 min at 37 °C or room temperature. After the incubation period, 5 µL of the 6X EC80 agonist in an assay buffer was added to the cells and incubated for additional 90 or 180 min at 37 °C or room temperature.
(§4) The assays were performed at 10-point concentrations using three-fold serial dilutions in duplicate. For all the assay formats, the final assay vehicle concentration was 1%.
Protocol for ADRA2C: as §2, §3, §4
Protocol for DRD2L: as §2, §3, §4
Protocol for OPRK1: as §4
For PAM assays, the cells were preincubated with the sample followed by agonist induction at the EC20 concentration. To the cells, 5 µL of 5X sample was added and incubated for 30 min at 37 °C or room temperature. Following the incubation period, 5 µL of the 6X EC20 agonist prepared in an assay buffer was added to the cells and incubated for 90 or 180 min at 37 °C or room temperature.

For `COc1cc2ccnc3c2c(c1OC)NC=C3` [aaptamine], the inhibition at 50 µM in assay [1] (50 µM, 10 min preincubation, read-out: inhibition of enzyme activity (chymotrypsin-like)) turned out to be 41%. Also, the IC50 in assay [1] (read-out: IC50 proteasome inhibition in vitro) was ~50 µM; at DRD2L (dose-response, antagonist mode) it was 38.7 µM; in assay [3] (Homo sapiens, HCT-116, HCT116, 48 h, read-out: IC50 cancer cell growth inhibition), ~50 µM; against ADRA2C (dose-response, antagonist mode) it was 11.9 µM; on ADRA2A (dose-response, antagonist mode) it was 56.1 µM. In addition, the “validation of potentiator hit under PAM conditions” value on OPRK1 is “false positives; also recorded: did not validate”. Also, the “effective concentration, α-adrenoreceptor antagonism” value in the assay with α-adrenoreceptor was 30 µM. Also, the figures for the Emax on DRD2L (setting [4]), at ADRA2C (setting [4]) and at ADRA2A (setting [4]) were 73.7%, 104% and 63.4%, respectively. Moreover, the growth inhibitory activity result in assay [2] is “inactive”. In addition, the “reduction of viability of HCT116” value in assay [3] (50 µM (highest concentration tested), 48 h, MTT) amounted to 50%.
